# Measured values as given in article PMC12040169 (PLOS Biology, 2025).
# Assay: in vitro
# Details: human, hela cells, % viability
row,Compound,"viability at 28.5 h, 10 µM [%]"
1,Cc1ccc(OCC(O)CN2CCN(c3ccccn3)CC2)cc1C (stereo not drawn) [CBK058884],86.9
2,O=C(O)c1cc(S(=O)(=O)NCc2ccco2)ccc1Cl [CBK058905],85.4
3,O=C(NC(Cc1cnc[nH]1)C(=O)O)c1ccccc1 (stereo not drawn) [CBK059018],102
4,O=S(=O)(c1ccc(F)c(F)c1F)n1ccc2c(N3CCNCC3)nccc21 [CBK059066C],106
5,CCC(C)NC1=NC(=O)C(CC(=O)N(C)c2ccccc2)S1 (stereo not drawn) [CBK059110T],83.3
6,CCC(C)NC1=NC(=O)C(CC(=O)Nc2ccccc2Cl)S1 (stereo not drawn) [CBK059133T],97.3
7,CC1(c2ccccc2)CC(C)(C)N(C(=O)C2CCCO2)c2ccccc21 (stereo not drawn) [CBK059175],97.5
8,CN1CCN(CC(=O)N2c3ccccc3C(C)(c3ccc(Cl)cc3)CC2(C)C)CC1 (stereo not drawn) [CBK059202],88.1
9,CNC(=O)c1nc(NC)oc1C [CBK059214],94.4
10,FC(F)(F)Oc1ccc(-c2cncc(N3CCN(c4ccncc4)CC3)n2)cc1 [CBK059230C],88.9
11,COc1ccc([C@@]23CC[C@@H](NC(=O)Nc4cccc(-c5cnco5)c4)C[C@@H]2N(C)CC3)cc1OC [CBK059338T],92.3
12,COc1ccc(C2CCCC(N(CCN(C)C)C(=O)Nc3ccc(F)c(F)c3)C2)cc1OC (stereo not drawn) [CBK059339C],84.8
13,O=S(=O)(CC(F)(F)F)Nc1ccc(N2CCNCC2)c2ccccc12 [CBK059354C],90.6
14,O=C(Nc1ccccc1-n1cccc1)C1Cc2c([nH]c3ccccc23)C2(CCN(Cc3ccccc3)C2)N1 (stereo not drawn) [CBK059395],95.9
15,O=C(CN1CCc2c([nH]c3ccccc23)C12CCN(Cc1ccc(F)cc1)C2)Nc1ccccc1 (stereo not drawn) [CBK059450],96
16,O=C(Cc1ccccc1)N1CCc2c([nH]c3ccccc23)C12CCNC2 (stereo not drawn) [CBK059461],98.9
17,CC(C)(C)C(=O)N1CCc2c([nH]c3ccccc23)C12CCNC2 (stereo not drawn) [CBK059462],97.5
18,Fc1ccc(CN2CCC3(C2)c2[nH]c4ccccc4c2CCN3Cc2ccc(F)cc2)cc1 (stereo not drawn) [CBK059467],85.8
19,COc1cccc(CN2CCC3(C2)c2[nH]c4ccccc4c2CCN3Cc2cccc(OC)c2)c1 (stereo not drawn) [CBK059468],90.5
20,COc1ccc(NC(=O)CC2SC(NC3CCCCC3)=NC2=O)c(OC)c1 (stereo not drawn) [CBK059502],93.7
21,COc1ccc2[nH]c3c(c2c1)CCNC31CCN(CCCN2C(=O)C3CCCCC3C2=O)C1 (stereo not drawn) [CBK059518],88.9
22,O=C(CN1CCOCC1)NC1(c2ccccc2)CCCCC1 [CBK059545C],85.6
23,Cc1ccc(C)c(NC(=O)N2CCC3(CCc4nccc(C)c4C3=O)CC2)c1 [CBK059554],91.6

row,Compound,"viability at 28.5 h, 10 µM [%]"
1,Cc1ccnc2c1C(=O)C1(CC2)CCN(S(=O)(=O)c2c(C)noc2C)CC1 [CBK059557T],80.4
2,CNC1CCC2(c3ccc(OC)c(OC)c3)CCN(C)C2C1 (stereo not drawn) [CBK059586C],87.3
3,O=C(NC(c1ccc(Cl)cc1)c1cnccn1)C1CCN(C(=O)N2CCOCC2)CC1 (stereo not drawn) [CBK059635],96.7
4,Cc1cc(C(=O)N2CCC(C(=O)NC(c3ccccc3)c3ccc4ccccc4n3)CC2)no1 (stereo not drawn) [CBK059641],100
5,COc1ccccc1C(NC(=O)C1CCN(C(=O)OC(C)C)CC1)c1ccccn1 (stereo not drawn) [CBK059649],111
6,Cc1ccc(C(=O)N2CCC(C(=O)NC(c3ccccc3)c3ccc4ccccc4n3)CC2)cc1 (stereo not drawn) [CBK059663],87.9
7,CC(C)COC(=O)N1CCC(C(=O)NC(c2ccc(Cl)cc2)c2cnccn2)CC1 (stereo not drawn) [CBK059668],99.2
8,Cc1ccccc1C(NC(=O)C1CCN(C(=O)CCC2CCCC2)CC1)c1ccccn1 (stereo not drawn) [CBK059677],90.5
9,COCCOC(=O)N1CCC(C(=O)NC(c2ccc(Cl)cc2)c2cccs2)CC1 (stereo not drawn) [CBK059702],104
10,COc1ccc(C(NC(=O)C2CCN(C(=O)OC(C)C)CC2)c2ccccc2C)cn1 (stereo not drawn) [CBK059704],101
11,O=C(NC(c1ccc(F)cc1)c1ccccn1)C1CCN(C(=O)c2ccno2)CC1 (stereo not drawn) [CBK059705],99.9
12,O=C(NC(c1ccc(Cl)cc1)c1cccnc1)C1CCN(C(=O)c2ccco2)CC1 (stereo not drawn) [CBK059708],92.4
13,COc1ccc(C(NC(=O)C2CCN(C(=O)Oc3ccccc3)CC2)c2ccccc2C)cn1 (stereo not drawn) [CBK059715],91.1
14,COc1ccc(C(NC(=O)C2CCN(C(=O)C(C)(C)C)CC2)c2cnccn2)cc1 (stereo not drawn) [CBK059791],97
15,Cc1cc(C(=O)N2CCC(C(=O)NC(c3cnccn3)c3ccccc3C)CC2)no1 (stereo not drawn) [CBK059810],93.6
16,CN(C(=O)N1CCC(C(=O)NC(c2ccccc2)c2ccco2)CC1)c1ccccc1 (stereo not drawn) [CBK059877],89
17,CC(=O)N1CCC(C(=O)NC(c2ccc3c(c2)OCO3)c2cccs2)CC1 (stereo not drawn) [CBK059881],101
18,O=C(NC(c1ccccc1)c1ccco1)C1CCN(C(=O)CCC2CCCC2)CC1 (stereo not drawn) [CBK059887],90.4
19,CS(=O)(=O)N1CCC(C(=O)NC(c2ccccc2)c2cnccn2)CC1 (stereo not drawn) [CBK059901],105
20,COc1cccc(C(NC(=O)C2CCN(C(=O)c3ccccc3)CC2)c2ccccn2)c1 (stereo not drawn) [CBK060036],103
21,O=C(NC(c1ccc(Cl)cc1)c1ccsc1)C1CCN(C(=O)Oc2ccc(Cl)cc2)CC1 (stereo not drawn) [CBK060044],88.5
22,Cc1cccnc1C(c1ccc(F)cc1)N(C)C(=O)C1CCN(C(=O)OCc2ccccc2)CC1 (stereo not drawn) [CBK060095],116
